The conditions of data set [1]: pampa.
The next data set in a line: physchem. Conditions: aqueous solution, pH 6.8.

The structures appear in SMILES notation. In brackets after ≈: the same amount, converted by molar mass.

As to `C[C@H](Oc1ncc(NC(=O)Cc2ccncc2)cc1Cl)c1ccccc1`, the “log(permeability)” value in data set [1] is on record as -3.7. The same compound gave a thermodynamic solubility in the data set “physchem” of 28 µM (≈ 10.3 µg/mL).
